In patent US9359308B2, “Pyrazine kinase inhibitors” (Portola Pharmaceuticals, Inc., priority 2011, dated 2016):

Biological target: T1, full length active recombinant SYK enzyme (Homo sapiens, UniProt P43405)
T1 construct: full length active recombinant SYK enzyme (Millipore, Calif.); purchased Millipore
Test: Inhibition of Syk tyrosine phosphorylation activity (LANCE TR-FRET kinase assay)
Assay type: biochemical
Conditions: activity in the Syk assays, class symbols
Excerpt: The in vitro and in vivo human Syk activities of the inventive compounds can be determined by various procedures known in the art, such as a test for their ability to inhibit the activity of human plasma Syk. […] The IC50 value is the concentration (in nM) of the compound required to provide 50% inhibition of human Syk proteolytic activity.
An in vitro assay for detecting and measuring inhibition activity against Syk is as follows:
Inhibition of Syk Tyrosine Phosphorylation Activity
Potency of candidate molecules for inhibiting Syk tyrosine phosphorylation activity is assessed by measuring the ability of a test compound to inhibit Syk-mediated tyrosine phosphorylation of a Syk-specific substrate.
SYK tyrosine phosphorylation activity is measured using the LANCE™ Technology developed by Perkin Elmer Life and Analytical Sciences (Boston, Mass.). LANCE™ refers to homogeneous time resolved fluorometry applications using techniques such as time-resolved fluorescence resonance energy transfer assay (TR-FRET) (see generally for procedures in Perkin Elmer Application Note-How to Optimize a Tyrosine Kinase Assay Using Time Resolved Fluorescence-Based LANCE Detection, wwww.perkinelmer.com/lifesciences). The assay principle involves detection of a phosphorylated substrate using energy transfer from a phosphospecific europium-labeled antibody to streptavidin-allophycocyanin as an acceptor.
To test the ability of candidate molecules to inhibit SYK tyrosine phosphorylation activity, molecules are reconstituted in 30% DMSO and serially diluted 1:3 with the final dilution containing DMSO in the absence of the candidate molecule. The final DMSO concentration in the assay is 3%. Kinase assays are performed as a two part reaction. The first reaction is a kinase reaction and which comprises of a candidate molecule, full length active recombinant SYK enzyme (Millipore, Calif.) and biotin-labeled SYK-specific substrate biotin-DEEDYESP-OH. The second reaction involves termination of the kinase reaction and the simultaneous addition of the detection reagents-europium-labeled anti-phosphotyrosine reagent (Eu-W1024-PY100, Perkin Elmer, Boston, Mass.) and Streptavidin-Allophycocyanin detection reagent (SA-APC, Prozyme, CA). The kinase reaction is performed in a black U-bottom 96-well microtitre plate. The final reaction volume is 50 μL and contains a final concentration of 1 nM active SYK enzyme, 550 nM SYK-substrate, and 100 μM ATP diluted in a buffer containing 50 mM Tris pH 7.5, 5 mM MgCl2, and 1 mM DTT. The reaction is allowed to proceed for 1 hour at room temperature. The quench buffer contains 100 mM Tris pH 7.5, 300 mM NaCl2, 20 mM EDTA, 0.02% Brij35, and 0.5% BSA. The detection reagents are added to the reaction mixture at the following dilutions-1:500 for Eu-W1024-PY100 and 1:250 for SA-APC. The kinase reaction is terminated by the addition of 50 μL quench buffer containing the detection reagents. The detection is allowed to proceed for 1 hr at room temperature. Detection of the phosphorlated substrate in the absence and presence of inhibitors is measured in the TR-FRET instrument, Analyst HT (Molecular Probes, Sunnyvale, Calif.) and the condition for measurements are set up using CriterionHost Release 2.0 (Molecular Probes, Sunnyvale, Calif.). The settings used are a follows: excitation 360 nm, emission 665-7.5 nm, beam splitter 350 nm 50/50, flash 100 pulses, delay 60 us, integration 400 us, z-height 2 mm. Inhibition of SYK-tyrosine kinase activity is calculated as the maximum response observed in the presence of inhibitor, compared to that in the absence of inhibitor. IC50s were derived by non-linear regression analysis.

Compared with `NC(=O)c1ncc(N[C@@H]2CCCC[C@@H]2N)nc1Nc1ccc2[nH]ncc2c1` (racemic) [Example 54, cis-3-(1H-indazol-5-ylamino)-5-(2-aminocyclohexylamino)pyrazine-2-carboxamide], `NC(=O)c1ccc(Nc2nc(N[C@@H]3CCCC[C@@H]3N)cnc2C(N)=O)cc1` [Example 13, 5-((1R,2S)-2-aminocyclohexylamino)-3-(4-carbamoylphenylamino)pyrazine-2-carboxamide] is higher in IC50: less than 1 nM for the first, 1 to 10 nM for the second. The first is the more potent here.

`CC(C)C[C@@H](Nc1cnc(C(N)=O)c(Nc2cnc3ccccc3c2)n1)C(N)=O` [Example 1, (R)-5-(1-amino-4-methyl-1-oxopentan-2-ylamino)-3-(quinolin-3-ylamino)pyrazine-2-carboxamide] and `CC(C)C[C@@H](Nc1cnc(C(N)=O)c(Nc2ccc3ncccc3c2)n1)C(N)=O` [Example 2, (R)-5-(1-amino-4-methyl-1-oxopentan-2-ylamino)-3-(quinolin-6-ylamino)pyrazine-2-carboxamide] fall in the same range of IC50: 1 to 10 nM for the first, 1 to 10 nM for the second.

`CC(C)C[C@@H](Nc1cnc(C(N)=O)c(Nc2cccc3c2ccn3C)n1)C(N)=O` [Example 3, (R)-5-(1-amino-4-methyl-1-oxopentan-2-ylamino)-3-(1-methyl-1H-indol-4-ylamino)pyrazine-2-carboxamide] and `CC(C)C[C@@H](Nc1cnc(C(N)=O)c(Nc2ccc(C(N)=O)cc2)n1)C(N)=O` [Example 20, (R)-5-(1-amino-4-methyl-1-oxopentan-2-ylamino)-3-(4-carbamoylphenylamino)pyrazine-2-carboxamide] fall in the same range of IC50: 1 to 10 nM for the first, 1 to 10 nM for the second.

`C[C@@H](Nc1cnc(C(N)=O)c(Nc2ccc3ncccc3c2)n1)C(N)=O` [Example 4, (R)-5-(1-amino-1-oxopropan-2-ylamino)-3-(quinolin-6-ylamino)pyrazine-2-carboxamide] and `C[C@@H](Nc1cnc(C(N)=O)c(Nc2cnc3ccccc3c2)n1)C(N)=O` [Example 5, (R)-5-(1-amino-1-oxopropan-2-ylamino)-3-(quinolin-3-ylamino)pyrazine-2-carboxamide] fall in the same range of IC50: 1 to 10 nM for the first, 1 to 10 nM for the second.

`NC(=O)c1ncc(NC(CC(F)(F)F)C(N)=O)nc1Nc1ccc2ncccc2c1` (stereo not drawn) [Example 6, 5-(1-amino-4,4,4-trifluoro-1-oxobutan-2-ylamino)-3-(quinolin-6-ylamino)pyrazine-2-carboxamide] and `NC(=O)c1ncc(N[C@H](CC2CC2)C(N)=O)nc1Nc1ccc2ncccc2c1` [Example 8, (R)-5-(1-amino-3-cyclopropyl-1-oxopropan-2-ylamino)-3-(quinolin-6-ylamino)pyrazine-2-carboxamide] fall in the same range of IC50: 1 to 10 nM for the first, 1 to 10 nM for the second.

`NC(=O)c1ncc(N[C@H](CC2CC2)C(N)=O)nc1Nc1cnc2ccccc2c1` [Example 7, (R)-5-(1-amino-3-cyclopropyl-1-oxopropan-2-ylamino)-3-(quinolin-3-ylamino)pyrazine-2-carboxamide] and `NC(=O)c1ncc(N[C@H](CC2CC2)C(N)=O)nc1Nc1csc2ncccc12` [Example 9, (R)-5-(1-amino-3-cyclopropyl-1-oxopropan-2-ylamino)-3-(thieno[2,3-b]pyridin-3-ylamino)pyrazine-2-carboxamide] fall in the same range of IC50: 1 to 10 nM for the first, 1 to 10 nM for the second.

First: NC(=O)c1ncc(N[C@@H]2CCCC[C@@H]2N)nc1Nc1cccc(-n2nccn2)c1 [Example 10, 3-(3-(2H-1,2,3-triazol-2-yl)phenylamino)-5-((1R,2S)-2-aminocyclohexylamino)pyrazine-2-carboxamide]
Second: NC(=O)c1ncc(N[C@@H]2CCCC(F)(F)[C@@H]2N)nc1Nc1cccc(-n2nccn2)c1 [Example 15, 3-(3-(2H-1,2,3-triazol-2-yl)phenylamino)-5-((1R,2R)-2-amino-3,3-difluorocyclohexylamino)pyrazine-2-carboxamide]
The IC50 of the first is lower: 1 to 10 nM for the first, 10 to 100 nM for the second. The first is the more potent here.

`Cn1ccc2c(Nc3nc(N[C@@H]4CCCC[C@@H]4N)cnc3C(N)=O)cccc21` [Example 11, 5-((1R,2S)-2-aminocyclohexylamino)-3-(1-methyl-1H-indol-4-ylamino)pyrazine-2-carboxamide] and `NC(=O)c1ncc(N[C@@H]2CCCC[C@@H]2N)nc1Nc1cccc(-c2ncccn2)c1` [Example 12, 5-((1R,2S)-2-aminocyclohexylamino)-3-(3-(pyrimidin-2-yl)phenylamino)pyrazine-2-carboxamide] fall in the same range of IC50: 1 to 10 nM for the first, 1 to 10 nM for the second.

Compared with `NC(=O)c1ncc(N[C@@H]2CCCC(F)(F)[C@@H]2N)nc1Nc1ccc2ncccc2c1` [Example 14, 5-((1R,2R)-2-amino-3,3-difluorocyclohexylamino)-3-(quinolin-6-ylamino)pyrazine-2-carboxamide], `NC(=O)c1ncc(N[C@@H]2CCCC(F)(F)[C@@H]2N)nc1Nc1cccc(-c2ncccn2)c1` [Example 16, 5-((1R,2R)-2-amino-3,3-difluorocyclohexylamino)-3-(3-(pyrimidin-2-yl)phenylamino)pyrazine-2-carboxamide] is higher in IC50: 1 to 10 nM for the first, 100 to 1000 nM for the second. The first is the more potent here.

`NC(=O)c1ncc(N[C@@H]2CCCC(F)(F)[C@@H]2N)nc1Nc1ccccc1` [Example 17, 5-((1R,2R)-2-amino-3,3-difluorocyclohexylamino)-3-(phenylamino)pyrazine-2-carboxamide] and `NC(=O)c1ccc(Nc2nc(N[C@@H]3CCCC(F)(F)[C@@H]3N)cnc2C(N)=O)cc1` [Example 19, 5-((1R,2R)-2-amino-3,3-difluorocyclohexylamino)-3-(4-carbamoylphenylamino)pyrazine-2-carboxamide] fall in the same range of IC50: 10 to 100 nM for the first, 10 to 100 nM for the second.

`NC(=O)c1ncc(N[C@@H]2CCCC(F)(F)[C@@H]2N)nc1Nc1ccc(-c2ccno2)cc1` [Example 18, 5-((1R,2R)-2-amino-3,3-difluorocyclohexylamino)-3-(4-(isoxazol-5-yl)phenylamino)pyrazine-2-carboxamide] and `NC(=O)c1ncc(N[C@@H]2CCCC(F)(F)[C@@H]2N)nc1Nc1ccc(-c2ccncc2)cc1` [Example 26, 5-((1R,2R)-2-amino-3,3-difluorocyclohexylamino)-3-(4-(pyridin-4-yl)phenylamino)pyrazine-2-carboxamide] fall in the same range of IC50: 10 to 100 nM for the first, 10 to 100 nM for the second.

`CC(C)C[C@@H](Nc1cnc(C(N)=O)c(Nc2ccc(-c3ccno3)cc2)n1)C(N)=O` [Example 21, (R)-5-(1-amino-4-methyl-1-oxopentan-2-ylamino)-3-(4-(isoxazol-5-yl)phenylamino)pyrazine-2-carboxamide] and `Cc1cc(Nc2nc(N[C@H](CC(C)C)C(N)=O)cnc2C(N)=O)sn1` [Example 22, (R)-5-(1-amino-4-methyl-1-oxopentan-2-ylamino)-3-(3-methylisothiazol-5-ylamino)pyrazine-2-carboxamide] fall in the same range of IC50: 1 to 10 nM for the first, 1 to 10 nM for the second.

`Cc1cc(Nc2nc(N[C@@H]3CCCC(F)(F)[C@@H]3N)cnc2C(N)=O)sn1` [Example 23, 5-((1R,2R)-2-amino-3,3-difluorocyclohexylamino)-3-(3-methylisothiazol-5-ylamino)pyrazine-2-carboxamide] and `COc1ccc(Nc2nc(N[C@@H]3CCCC(F)(F)[C@@H]3N)cnc2C(N)=O)cc1` [Example 24, 5-((1R,2R)-2-amino-3,3-difluorocyclohexylamino)-3-(4-methoxyphenylamino)pyrazine-2-carboxamide] fall in the same range of IC50: 10 to 100 nM for the first, 10 to 100 nM for the second.

Compound `NC(=O)c1ncc(N[C@@H]2CCCC(F)(F)[C@@H]2N)nc1Nc1ccc2c(c1)CCC(=O)N2` [Example 25, 5-((1R,2R)-2-amino-3,3-difluorocyclohexylamino)-3-(2-oxo-1,2,3,4-tetrahydroquinolin-6-ylamino)pyrazine-2-carboxamide] has an IC50 of 1 to 10 nM.
